From PubChem BioAssay (NCI)
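Tested at 5 concentrations; 48 h exposure; 96-well plates; endpoints linearly interpolated, else capped at highest concentration. GI50: concentration for 50% inhibition of growth. TGI denotes the concentration required for complete inhibition of growth.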

Assays:
Assay in all cases: growth of human tumour cells (NCI), 48 h
[1] = test system: M14 melanoma
[2] = test system: COLO 205 colon
[3] = test system: UACC-257 melanoma
[4] = test system: IGROV1 ovarian
[5] = test system: 786-0 renal
[6] = test system: HL-60(TB) leukemia
[7] = test system: SK-MEL-28 melanoma
[8] = test system: UO-31 renal
[9] = test system: RPMI-8226 leukemia
[10] = test system: NCI-H460 lung

Compound | GI50 [1] | TGI [1] | GI50 [2] | TGI [2] | GI50 [3] | TGI [3] | GI50 [4] | TGI [4] | GI50 [5] | TGI [5] | GI50 [6] | TGI [6] | GI50 [7] | TGI [7] | GI50 [8] | TGI [8] | GI50 [9] | TGI [9] | TGI [10] | GI50 [10]
N.N.N.N.N.N.O=N[O-].[Br-].[Co+3].[Co+3].[OH3+].[OH3+] | > 100000 nM | > 100 µM | > 100000 nM | > 100 µM | > 100 µM | > 100 µM | > 100000 nM | > 100 µM | > 100000 nM | > 100 µM | > 100000 nM | > 100 µM | > 100000 nM | > 100 µM | > 100000 nM | > 100 µM | > 100000 nM | > 100 µM |  | 
S=c1nc(-c2cccnc2)[nH][nH]1 |  | > 100 µM |  | > 100 µM |  | > 100 µM |  |  |  | > 100 µM |  | > 100 µM |  | > 100 µM |  |  |  | > 100 µM | > 100 µM | 
CCCCCCN(CCCCCC)CC(O)c1ccc2c3c(cccc13)CC2 (centres undefined) | 3950 nM | 17 µM | 5560 nM | 19.8 µM | 6.97 µM | 22.6 µM |  |  | 6150 nM | 20.2 µM | 2160 nM | 6.16 µM | 11200 nM | 24.9 µM | 3090 nM | 17.3 µM | 3020 nM | 9.83 µM | 17 µM | 3360 nM
Cc1ccc2c(c1)C(c1cccc3ccccc13)OC2=O (centres undefined) |  | > 100 µM |  | > 100 µM |  | > 100 µM |  | > 100 µM |  | > 100 µM |  | > 100 µM |  | > 100 µM |  | > 100 µM |  |  | > 100 µM | 
CCOC(=O)[C@H]1Nc2ccc(OC)cc2C2c3ccccc3CC21 (some centres undefined) |  | > 100 µM |  | > 100 µM |  | > 100 µM |  | > 100 µM |  | > 100 µM |  |  |  | > 100 µM |  | > 100 µM |  | > 100 µM | > 100 µM | 
COc1cc2nc(-c3ccc(C(F)(F)F)cc3)cc(OCCCN3CCCCC3)c2cc1OC | 327 nM | 1.26 µM | 406 nM | 1.94 µM | 1.7 µM | 5.27 µM | 651 nM | 16 µM | 2170 nM | 6.59 µM | 2910 nM | 18.3 µM | 1260 nM | 2.95 µM | 2000 nM | 12.5 µM |  |  | 11.9 µM | 595 nM
COC(=O)CCCCCN=Cc1c(O)c(O)c(C(C)C)c2cc(C)c(-c3c(C)cc4c(C(C)C)c(O)c(O)c(C=NCCCCCC(=O)OC)c4c3O)c(O)c12 | 2300 nM | 25.9 µM | 1180 nM | 13.2 µM |  |  | 1760 nM | > 32.5 µM | 1770 nM | 14.7 µM | 1090 nM | 7.93 µM | 1950 nM | > 32.5 µM | 1240 nM | > 32.5 µM | 946 nM | 15.1 µM | 8.42 µM | 1280 nM
CCOC(=O)C(=O)Nc1c(C(C)C)cccc1C(C)C |  | > 100 µM |  | > 100 µM |  | > 100 µM |  | > 100 µM |  | > 100 µM |  | > 100 µM |  | > 100 µM |  | > 100 µM |  |  | > 100 µM | 
Cc1cc(N/N=C/c2nc(-c3ccc(Cl)cc3)oc2C)c2cc(Cl)ccc2n1 | 1960 nM | 4.13 µM | 2310 nM | 6.57 µM | 1.93 µM | 4.52 µM | 3380 nM | 12.6 µM | 1550 nM | 2.99 µM | 1980 nM | 4.82 µM | 1990 nM | 3.86 µM | 12600 nM | 25.2 µM | 2070 nM | 5.21 µM |  | 
CCOC(=O)c1cc(/C=C/C(C)=C/C(=O)OC)n(C)c1C |  | > 100 µM |  | > 100 µM |  | > 100 µM |  | > 100 µM |  | > 100 µM |  | > 100 µM |  |  |  | > 100 µM |  | > 100 µM | > 100 µM | 
O=C(O)CSc1ncccc1[N+](=O)[O-] |  | > 100 µM |  | > 100 µM |  | > 100 µM |  | > 100 µM |  | > 100 µM |  | > 100 µM |  | > 100 µM |  | > 100 µM |  |  | > 100 µM | 
COc1ccc(CN2c3ccccc3CCc3ccccc32)cc1F | 354 nM | > 100 µM | 335 nM | 1.39 µM | > 100 µM | > 100 µM | 1570 nM | > 100 µM | 572 nM | > 100 µM |  |  | 820 nM | > 100 µM | 814 nM | > 100 µM | 644 nM | > 100 µM | > 100 µM | 419 nM
O=C([CH-]C(=O)C(F)(F)F)c1ccccc1.O=C([CH-]C(=O)C(F)(F)F)c1ccccc1.O=C([CH-]C(=O)C(F)(F)F)c1ccccc1.O=C([CH-]C(=O)C(F)(F)F)c1ccccc1.[Eu+3].c1ccncc1 | 9520 nM | 39.5 µM | 28800 nM | > 100 µM | 11.9 µM | 55.2 µM | 7880 nM | > 100 µM | 11900 nM | > 100 µM | 3690 nM | 13.8 µM | 14300 nM | > 100 µM |  |  | 4190 nM | 35.3 µM | 43.7 µM | 5620 nM
Cc1cc2c(=O)c3ccccc3[nH]c2c(C(=O)O)c1C |  |  |  | > 100 µM |  | > 100 µM |  | > 100 µM |  | > 100 µM |  | > 100 µM |  | > 100 µM |  | 87.5 µM |  | > 100 µM | > 100 µM | 
Cc1nc(C(N)=S)sc1C(=O)C/C(=N/N)C(=O)Nc1cccc(Cl)c1C |  | > 100 µM |  |  |  | > 100 µM |  | > 100 µM |  | > 100 µM |  | > 100 µM |  | > 100 µM |  | > 100 µM |  | > 100 µM | > 100 µM | 
COc1ccc(/C=C2\C(=O)N(C(=O)Cc3ccccc3)N=C2C)cc1OC |  | > 100 µM |  | > 100 µM |  | > 100 µM |  |  |  | > 100 µM |  | > 100 µM |  | > 100 µM |  | > 100 µM |  | > 100 µM |  | 
O=c1[nH]c(=O)n(C2OC3COC2C3O)cc1F (centres undefined) |  | > 100 µM |  | > 100 µM |  | > 100 µM |  |  |  | > 100 µM |  | > 100 µM |  | > 100 µM |  | > 100 µM |  | > 100 µM | > 100 µM | 
BrC1(Br)C2/C=C\CCCCC21 (centres undefined) |  |  |  | > 100 µM |  | > 100 µM |  | > 100 µM |  | > 100 µM |  | > 100 µM |  | > 100 µM |  |  |  |  | > 100 µM | 
O=[N+]([O-])c1nccn1COCCBr |  | > 100 µM |  |  |  | > 100 µM |  |  |  | > 100 µM |  | > 100 µM |  | > 100 µM |  | > 100 µM |  | > 100 µM | > 100 µM | 
